According to ChEMBL document CHEMBL4507321 (2021):
Calls of active or inactive are those of the source.

Legend:
[1] = molecular target: 5-hydroxytryptamine receptor 3A (Homo sapiens) (UniProt P46098); conditions: Compound concentration 10.0 uM
[2] = molecular target: Alpha-2B adrenergic receptor (Homo sapiens) (UniProt P18089); conditions: Compound concentration 10.0 uM
[3] = molecular target: Alpha-1A adrenergic receptor (Homo sapiens) (UniProt P35348); conditions: Compound concentration 10.0 uM
[4] = molecular target: 5-hydroxytryptamine receptor 7 (Homo sapiens) (UniProt P34969); conditions: Compound concentration 10.0 uM
[5] = molecular target: Histamine H2 receptor (Homo sapiens) (UniProt P25021); conditions: Compound concentration 10.0 uM
[6] = molecular target: Delta-type opioid receptor (Homo sapiens) (UniProt P41143); conditions: Compound concentration 10.0 uM
[7] = molecular target: D(4) dopamine receptor (Homo sapiens) (UniProt P21917); conditions: Compound concentration 10.0 uM
[8] = molecular target: Mu-type opioid receptor (Homo sapiens) (UniProt P35372); conditions: Compound concentration 10.0 uM
[9] = molecular target: Sigma intracellular receptor 2 (Homo sapiens) (UniProt Q5BJF2); conditions: Compound concentration 10.0 uM
[10] = molecular target: D(2) dopamine receptor (Homo sapiens) (UniProt P14416); conditions: Compound concentration 10.0 uM
[11] = molecular target: 5-hydroxytryptamine receptor 1E (Homo sapiens) (UniProt P28566); conditions: Compound concentration 10.0 uM
[12] = molecular target: D(1B) dopamine receptor (Homo sapiens) (UniProt P21918); conditions: Compound concentration 10.0 uM
[13] = molecular target: 5-hydroxytryptamine receptor 2A (Homo sapiens) (UniProt P28223); conditions: Compound concentration 10.0 uM
[14] = molecular target: Kappa-type opioid receptor (Homo sapiens) (UniProt P41145); conditions: Compound concentration 10.0 uM
[15] = molecular target: D(1A) dopamine receptor (Homo sapiens) (UniProt P21728); conditions: Compound concentration 10.0 uM
[16] = molecular target: Muscarinic acetylcholine receptor M2 (Homo sapiens) (UniProt P08172); conditions: Compound concentration 10.0 uM
[17] = molecular target: Muscarinic acetylcholine receptor M5 (Homo sapiens) (UniProt P08912); conditions: Compound concentration 10.0 uM
[18] = molecular target: T1, GABA-A receptor; anion channel (Rattus norvegicus) (UniProt O09028+P15431+P18506+P18508+P19969+P20236+P23574+P23576+P28471+P28473+P30191+P62813+P63079+P63138+Q91ZM7+Q9ES14); conditions: Compound concentration 10.0 uM
Rattus norvegicus = organism: Rattus norvegicus; conditions: Compound concentration 10.0 uM
[19] = molecular target: Alpha-2C adrenergic receptor (Homo sapiens) (UniProt P18825); conditions: Compound concentration 10.0 uM
EMRK1184 = experiment: Proliferation assay with EMRK1184 lymphoma cells; format: functional, cell-based; conditions: Mus musculus
[20] = molecular target: 5-hydroxytryptamine receptor 5A (Homo sapiens) (UniProt P47898); conditions: Compound concentration 10.0 uM
[21] = molecular target: Beta-2 adrenergic receptor (Homo sapiens) (UniProt P07550); conditions: Compound concentration 10.0 uM
[22] = molecular target: Histamine H4 receptor (Homo sapiens) (UniProt Q9H3N8); conditions: Compound concentration 10.0 uM
[23] = molecular target: D(3) dopamine receptor (Homo sapiens) (UniProt P35462); conditions: Compound concentration 10.0 uM
MEF = experiment: Cell growth of Fucci MEFs; format: functional, Mus musculus; conditions: Assay publication PMID: 30069049; Compound concentration 1 uM
[24] = molecular target: Muscarinic acetylcholine receptor M1 (Homo sapiens) (UniProt P11229); conditions: Compound concentration 10.0 uM
[25] = molecular target: Muscarinic acetylcholine receptor M4 (Homo sapiens) (UniProt P08173); conditions: Compound concentration 10.0 uM
[26] = molecular target: Alpha-1D adrenergic receptor (Homo sapiens) (UniProt P25100); conditions: Compound concentration 10.0 uM
[27] = molecular target: T1, GABA-A receptor; anion channel (Rattus norvegicus); conditions: Compound concentration 10.0 uM; remark: listed apart in the source
[28] = molecular target: Beta-3 adrenergic receptor (Homo sapiens) (UniProt P13945); conditions: Compound concentration 10.0 uM
[29] = molecular target: Beta-1 adrenergic receptor (Homo sapiens) (UniProt P08588); conditions: Compound concentration 10.0 uM
[30] = molecular target: Histamine H1 receptor (Homo sapiens) (UniProt P35367); conditions: Compound concentration 10.0 uM
[31] = molecular target: 5-hydroxytryptamine receptor 1B (Homo sapiens) (UniProt P28222); conditions: Compound concentration 10.0 uM
[32] = molecular target: Sigma non-opioid intracellular receptor 1 (Homo sapiens) (UniProt Q99720); conditions: Compound concentration 10.0 uM
[33] = molecular target: Alpha-1B adrenergic receptor (Homo sapiens) (UniProt P35368); conditions: Compound concentration 10.0 uM
[34] = molecular target: 5-hydroxytryptamine receptor 1A (Homo sapiens) (UniProt P08908); conditions: Compound concentration 10.0 uM
[35] = molecular target: 5-hydroxytryptamine receptor 2B (Homo sapiens) (UniProt P41595); conditions: Compound concentration 10.0 uM
[36] = molecular target: 5-hydroxytryptamine receptor 1D (Homo sapiens) (UniProt P28221); conditions: Compound concentration 10.0 uM
[37] = molecular target: 5-hydroxytryptamine receptor 2C (Homo sapiens) (UniProt P28335); conditions: Compound concentration 10.0 uM
[38] = molecular target: Alpha-2A adrenergic receptor (Homo sapiens, UniProt P08913); experiment: GPCRScan assay: inhibition of Alpha2A; design: radioligand conc. used [nm] 1.0 – 3.0, parental cells stable MDCK
[39] = molecular target: Methionine aminopeptidase 2 (Homo sapiens, UniProt P50579); experiment: Biochemical activity-MetAP2 using Co
[40] = molecular target: Histamine H3 receptor (Homo sapiens) (UniProt Q9Y5N1); conditions: Compound concentration 10.0 uM
[41] = molecular target: T2, Sodium-dependent dopamine transporter (Homo sapiens, UniProt Q01959); conditions: Compound concentration 10.0 uM
[42] = molecular target: Sodium-dependent noradrenaline transporter (Homo sapiens) (UniProt P23975); conditions: Compound concentration 10.0 uM
[43] = molecular target: 5-hydroxytryptamine receptor 6 (Homo sapiens) (UniProt P50406); conditions: Compound concentration 10.0 uM
[44] = molecular target: Sodium-dependent serotonin transporter (Homo sapiens) (UniProt P31645); conditions: Compound concentration 10.0 uM
[45] = molecular target: Muscarinic acetylcholine receptor M3 (Homo sapiens) (UniProt P20309); conditions: Compound concentration 10.0 uM
[46] = molecular target: Alpha-2A adrenergic receptor (Homo sapiens) (UniProt P08913); conditions: Compound concentration 10.0 uM
[47] = molecular target: T2, Sodium-dependent dopamine transporter; experiment: GPCRScan assay: inhibition of DAT; design: radioligand conc. used [nm] 3.6 – 16.0, parental cells stable HEK

T2 sequence (Q01959 whole entry): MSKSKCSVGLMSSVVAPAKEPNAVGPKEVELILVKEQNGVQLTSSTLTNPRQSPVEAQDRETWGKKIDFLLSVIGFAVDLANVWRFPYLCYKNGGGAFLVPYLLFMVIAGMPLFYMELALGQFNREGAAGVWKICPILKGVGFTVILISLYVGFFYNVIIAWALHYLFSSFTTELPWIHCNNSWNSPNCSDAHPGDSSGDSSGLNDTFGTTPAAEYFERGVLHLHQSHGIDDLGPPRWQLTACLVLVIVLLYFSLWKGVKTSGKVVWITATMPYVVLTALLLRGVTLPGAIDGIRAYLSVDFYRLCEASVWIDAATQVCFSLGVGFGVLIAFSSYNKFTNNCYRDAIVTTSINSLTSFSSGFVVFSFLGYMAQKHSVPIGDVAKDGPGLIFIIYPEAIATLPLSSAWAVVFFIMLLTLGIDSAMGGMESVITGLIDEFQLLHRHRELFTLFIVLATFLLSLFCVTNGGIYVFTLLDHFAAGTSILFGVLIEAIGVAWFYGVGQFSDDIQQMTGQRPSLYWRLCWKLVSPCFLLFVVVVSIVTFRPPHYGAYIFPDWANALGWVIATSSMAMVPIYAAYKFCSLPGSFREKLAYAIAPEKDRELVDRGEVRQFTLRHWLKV
D(1A) dopamine receptor (Homo sapiens), sequence (P21728 whole entry): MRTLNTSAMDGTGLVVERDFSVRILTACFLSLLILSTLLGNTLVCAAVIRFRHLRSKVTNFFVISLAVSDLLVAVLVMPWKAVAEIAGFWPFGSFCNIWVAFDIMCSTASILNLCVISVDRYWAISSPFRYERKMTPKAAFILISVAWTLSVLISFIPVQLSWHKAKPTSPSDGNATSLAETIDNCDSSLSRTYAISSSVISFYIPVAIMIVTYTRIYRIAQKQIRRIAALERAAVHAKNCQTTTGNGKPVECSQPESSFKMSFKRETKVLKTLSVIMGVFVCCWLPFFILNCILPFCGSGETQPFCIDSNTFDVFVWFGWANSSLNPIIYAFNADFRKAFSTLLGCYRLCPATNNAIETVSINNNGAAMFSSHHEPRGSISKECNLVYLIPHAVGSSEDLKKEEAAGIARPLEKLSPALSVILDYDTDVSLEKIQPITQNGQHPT
D(3) dopamine receptor (Homo sapiens), sequence (P35462 whole entry): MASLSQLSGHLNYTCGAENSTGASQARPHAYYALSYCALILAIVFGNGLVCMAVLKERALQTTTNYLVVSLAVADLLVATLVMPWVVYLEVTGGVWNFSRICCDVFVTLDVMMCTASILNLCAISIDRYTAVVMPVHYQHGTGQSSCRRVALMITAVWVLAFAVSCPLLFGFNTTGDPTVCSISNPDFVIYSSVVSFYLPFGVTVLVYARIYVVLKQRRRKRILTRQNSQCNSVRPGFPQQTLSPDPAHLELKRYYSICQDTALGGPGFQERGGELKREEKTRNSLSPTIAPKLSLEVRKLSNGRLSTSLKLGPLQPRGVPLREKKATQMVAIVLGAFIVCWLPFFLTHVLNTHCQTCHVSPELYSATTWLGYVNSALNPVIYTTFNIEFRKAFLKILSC
Alpha-1A adrenergic receptor (Homo sapiens), sequence (P35348 whole entry): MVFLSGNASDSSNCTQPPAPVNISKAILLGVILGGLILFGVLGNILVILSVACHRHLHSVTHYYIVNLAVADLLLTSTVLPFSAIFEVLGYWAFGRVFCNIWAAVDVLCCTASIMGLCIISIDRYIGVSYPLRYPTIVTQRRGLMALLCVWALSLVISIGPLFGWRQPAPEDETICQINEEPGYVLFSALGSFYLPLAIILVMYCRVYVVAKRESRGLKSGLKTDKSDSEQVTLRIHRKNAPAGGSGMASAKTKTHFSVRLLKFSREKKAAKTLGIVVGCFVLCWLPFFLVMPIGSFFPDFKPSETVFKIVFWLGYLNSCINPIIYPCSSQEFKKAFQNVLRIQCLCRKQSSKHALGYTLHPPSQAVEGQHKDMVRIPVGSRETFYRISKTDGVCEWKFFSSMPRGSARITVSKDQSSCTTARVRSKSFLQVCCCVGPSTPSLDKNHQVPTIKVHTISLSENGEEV
Beta-2 adrenergic receptor (Homo sapiens), sequence (P07550 whole entry, looked up): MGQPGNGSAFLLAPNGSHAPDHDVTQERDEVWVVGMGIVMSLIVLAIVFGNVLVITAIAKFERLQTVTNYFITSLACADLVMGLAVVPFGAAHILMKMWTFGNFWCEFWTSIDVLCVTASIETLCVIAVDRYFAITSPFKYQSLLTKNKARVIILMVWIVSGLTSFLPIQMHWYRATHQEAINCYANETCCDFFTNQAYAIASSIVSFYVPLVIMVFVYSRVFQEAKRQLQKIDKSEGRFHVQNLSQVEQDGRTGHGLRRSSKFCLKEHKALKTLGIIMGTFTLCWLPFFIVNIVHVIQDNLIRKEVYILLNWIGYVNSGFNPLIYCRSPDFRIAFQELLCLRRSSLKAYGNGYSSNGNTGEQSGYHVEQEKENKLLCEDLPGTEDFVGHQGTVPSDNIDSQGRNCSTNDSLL
Sigma non-opioid intracellular receptor 1 (Homo sapiens), sequence (Q99720 whole entry): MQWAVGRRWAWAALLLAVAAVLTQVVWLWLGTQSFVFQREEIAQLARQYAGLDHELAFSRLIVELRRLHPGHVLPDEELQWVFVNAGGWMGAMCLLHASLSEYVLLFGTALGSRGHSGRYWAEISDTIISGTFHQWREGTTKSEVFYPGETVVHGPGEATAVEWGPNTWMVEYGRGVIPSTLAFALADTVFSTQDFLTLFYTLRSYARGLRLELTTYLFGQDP
5-hydroxytryptamine receptor 3A (Homo sapiens), sequence (P46098 whole entry): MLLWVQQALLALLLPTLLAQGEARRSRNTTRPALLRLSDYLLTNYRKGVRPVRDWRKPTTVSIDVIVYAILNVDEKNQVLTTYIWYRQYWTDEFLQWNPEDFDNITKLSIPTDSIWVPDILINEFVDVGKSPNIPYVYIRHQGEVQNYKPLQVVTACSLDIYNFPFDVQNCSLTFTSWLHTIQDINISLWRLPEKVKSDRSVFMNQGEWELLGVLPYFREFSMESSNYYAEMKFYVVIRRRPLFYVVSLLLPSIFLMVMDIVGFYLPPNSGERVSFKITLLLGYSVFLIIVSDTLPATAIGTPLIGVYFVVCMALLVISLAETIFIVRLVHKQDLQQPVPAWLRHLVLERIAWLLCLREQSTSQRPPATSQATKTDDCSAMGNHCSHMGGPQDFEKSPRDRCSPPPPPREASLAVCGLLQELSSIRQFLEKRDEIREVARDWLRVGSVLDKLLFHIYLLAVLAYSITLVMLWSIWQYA
Alpha-2A adrenergic receptor, sequence (P08913 whole entry): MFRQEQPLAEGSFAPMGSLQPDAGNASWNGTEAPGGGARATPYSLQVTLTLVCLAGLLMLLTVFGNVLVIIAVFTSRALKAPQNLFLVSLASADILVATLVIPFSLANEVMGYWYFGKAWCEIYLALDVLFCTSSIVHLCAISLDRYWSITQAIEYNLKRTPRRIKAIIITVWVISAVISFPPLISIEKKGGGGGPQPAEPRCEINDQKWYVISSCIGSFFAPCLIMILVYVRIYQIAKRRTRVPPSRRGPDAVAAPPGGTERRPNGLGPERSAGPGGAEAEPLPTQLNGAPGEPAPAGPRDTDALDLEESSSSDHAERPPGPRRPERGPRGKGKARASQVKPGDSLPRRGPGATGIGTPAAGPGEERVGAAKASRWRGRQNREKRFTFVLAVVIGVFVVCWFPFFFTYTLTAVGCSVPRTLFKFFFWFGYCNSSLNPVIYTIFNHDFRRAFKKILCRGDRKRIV
5-hydroxytryptamine receptor 1E (Homo sapiens), sequence (P28566 whole entry): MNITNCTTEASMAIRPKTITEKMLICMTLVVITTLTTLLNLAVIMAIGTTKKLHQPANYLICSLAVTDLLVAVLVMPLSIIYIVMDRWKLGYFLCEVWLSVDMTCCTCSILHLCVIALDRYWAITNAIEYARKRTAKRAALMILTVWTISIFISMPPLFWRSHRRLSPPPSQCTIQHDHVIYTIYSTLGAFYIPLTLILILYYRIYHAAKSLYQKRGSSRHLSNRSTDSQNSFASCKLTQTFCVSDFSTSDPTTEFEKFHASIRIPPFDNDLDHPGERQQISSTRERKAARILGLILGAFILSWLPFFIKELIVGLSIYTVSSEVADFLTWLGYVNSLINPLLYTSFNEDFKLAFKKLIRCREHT
Sigma intracellular receptor 2 (Homo sapiens), sequence (Q5BJF2 whole entry): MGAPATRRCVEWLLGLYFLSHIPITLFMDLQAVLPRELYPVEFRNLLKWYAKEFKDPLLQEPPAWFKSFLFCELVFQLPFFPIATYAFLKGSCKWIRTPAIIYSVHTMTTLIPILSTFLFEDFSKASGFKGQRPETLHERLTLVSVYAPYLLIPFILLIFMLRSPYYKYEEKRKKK
Alpha-2C adrenergic receptor (Homo sapiens), sequence (P18825 whole entry): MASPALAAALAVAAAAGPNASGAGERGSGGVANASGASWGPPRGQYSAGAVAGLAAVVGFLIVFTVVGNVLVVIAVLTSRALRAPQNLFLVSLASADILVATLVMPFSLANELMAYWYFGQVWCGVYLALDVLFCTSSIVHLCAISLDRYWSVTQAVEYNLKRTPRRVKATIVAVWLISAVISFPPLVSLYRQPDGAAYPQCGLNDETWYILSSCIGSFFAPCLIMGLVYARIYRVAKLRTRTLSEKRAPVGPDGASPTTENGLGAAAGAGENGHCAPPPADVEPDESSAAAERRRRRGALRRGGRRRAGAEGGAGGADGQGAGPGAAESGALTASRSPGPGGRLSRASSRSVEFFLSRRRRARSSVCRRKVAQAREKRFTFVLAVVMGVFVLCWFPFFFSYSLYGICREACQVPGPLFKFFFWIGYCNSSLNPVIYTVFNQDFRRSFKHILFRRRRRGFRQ
5-hydroxytryptamine receptor 5A (Homo sapiens), sequence (P47898 whole entry): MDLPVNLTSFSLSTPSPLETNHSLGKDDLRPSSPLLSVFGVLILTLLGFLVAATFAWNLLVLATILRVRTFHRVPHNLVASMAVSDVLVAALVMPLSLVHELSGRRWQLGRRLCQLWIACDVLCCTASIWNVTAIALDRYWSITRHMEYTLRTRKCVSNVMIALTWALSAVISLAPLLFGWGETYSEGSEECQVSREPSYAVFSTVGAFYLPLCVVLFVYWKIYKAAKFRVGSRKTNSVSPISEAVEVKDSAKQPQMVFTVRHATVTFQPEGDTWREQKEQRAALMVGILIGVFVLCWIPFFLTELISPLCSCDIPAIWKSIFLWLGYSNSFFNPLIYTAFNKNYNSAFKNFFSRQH
Alpha-2A adrenergic receptor (Homo sapiens), sequence (P08913 whole entry): as the sequence (P08913 whole entry) above

O=C(NNS(=O)(=O)c1ccccc1F)c1cc(F)cc(-c2ccccn2)c1 [WM-1119]
active: inhibition [10] 79.6% | IC50 (EMRK1184) 0.25 µM | inhibition [27] 75.7%
inactive: inhibition [1] 32.9% | inhibition [2] -3.78% | inhibition [3] 9.59% | inhibition [4] -3.75% | inhibition [5] 5.32% | inhibition [6] 20.6% | inhibition [7] 23.8% | inhibition [8] 3.45% | inhibition [9] 19.9% | inhibition [11] 13.8% | inhibition [12] 4.57% | inhibition [13] -7.37% | inhibition [14] 5.23% | inhibition [15] -3.67% | inhibition [16] 15.9% | inhibition [17] -8.87% | inhibition [18] 11.7% | inhibition (Rattus norvegicus) 47% | inhibition [19] 10.2% | inhibition [20] -9.77% | inhibition [21] 13.2% | inhibition [22] -2.44% | inhibition [23] 4.97% | inhibition [24] 0.14% | inhibition [25] 20.4% | inhibition [26] 3.2% | inhibition [28] 16.3% | inhibition [29] -0.13% | inhibition [30] -8.33% | inhibition [31] 13.6% | inhibition [32] 35.7% | inhibition [33] 7.18% | inhibition [34] 16% | inhibition [35] 2.94% | inhibition [36] -0.66% | inhibition [37] 6.46%
0: Cell cycle effect (MEF)

O=C(NNS(=O)(=O)c1ccccc1)c1cc(-c2ccnnc2)ccc1F [WM-2474]
0: Cell cycle effect (MEF)
> 50 µM (not active): IC50 [39]
> 10 µM: Ki [38] | Ki [47]
active: inhibition [41] 80.2% | inhibition [46] 68.5%
< 5: pKi [38] | pKi [47]
inactive: inhibition [1] 4.55% | inhibition [2] 3.07% | inhibition [3] 18.6% | inhibition [4] -1.87% | inhibition [5] -5.93% | inhibition [6] 7.99% | inhibition [7] 9.83% | inhibition [8] 26.1% | inhibition [40] 15.5% | inhibition [9] 40.1% | inhibition [10] 14.7% | inhibition [11] 13.1% | inhibition [12] 5.79% | inhibition [13] 11.8% | inhibition [42] -2.4% | inhibition [14] -5.1% | inhibition [15] 8.58% | inhibition [16] -5.57% | inhibition [18] 4.55% | inhibition (Rattus norvegicus) -3.6% | inhibition [19] -5.42% | inhibition [20] -0.06% | inhibition [21] 10.4% | inhibition [43] 2.65% | inhibition [44] 6.15% | inhibition [23] -8.61% | inhibition [24] 43.3% | inhibition [26] 17.4% | inhibition [27] 34.6% | inhibition [29] 11.2% | inhibition [45] 13% | inhibition [30] -2.04% | inhibition [31] 11% | inhibition [32] 19.1% | inhibition [33] -3.44% | inhibition [34] 23.1% | inhibition [35] 40.1% | inhibition [37] 7.81%
